Measurements from patent US7943586B2, “Antineoplastic agents targeted via glut transporters” (The Trustees of the University of Pennsylvania, priority 2003, dated 2011).
Each block holds one compound with its values, some of them ahead of it.

What was measured:
[1] = tested on: AR42J tumors (pancreatic acinar carcinoma); test: In vivo NIR phased array optical imaging of submerged AR42J tumors in nu/nu mice; set-up: species or system mouse; conditions: 3.5 hours after tail vein injection of 200 μL, tumor 1.5 cm deep
Text: In vivo NIR optical imaging system: To image and localize subsurface fluorochrome labeled tumors, an NLR imaging system utilizing diffusion photons (Patterson, M. S.; Chance, B.; Wilson, B. C., Time resolved reflectance and transmittance for the non-invasive measurement of tissue optical properties. Applied Optics 1989, 28, 2331-2336.
Fishkin, J. B.; Gratton, E., Propagation of photon-density waves in strongly scattering media containing an absorbing seni-infinite plane bounded by a straight edge. Journal of the Optical Society of America A 1993, 10, 127-140.) has been developed. The in vivo fluorescence optical imaging system consists of a pair of laser diodes operating at 780 nm. […]
Intes, X.; Chen, Y.; Li, X. D.; Chance, B., Detection limit enhancement of fluorescent heterogeneities in turbid media by dual-interfering excitation. […] A 3-mm-in-diameter fiber bundle collects the fluorescence signal from the fluorophore taken by in the tumor. […] The fluorescence signal is then detected by the photomultiplier tube (PMT) and demodulated by the 50 MD receiver to obtain the amplitude and phase information. […] (Chen, Y.; Zheng, G.; Zhang, Z. H.; Blessington, D.; Zhang, M.; Li, H.; Iiu, Q.; Zhou, L.; Intes, X.; Achilefu, S.; Chance, B., Metabolism-enhanced tumor localization by fluorescence imaging: in vivo animal studies. Optics Letters 2003, 28, (21), 2070-2072). […]

[2] = Water solubility / miscibility of Pyro-2DG; assay type: physicochemical
9L glioma = assay type: in vivo, rat
Protocol: Animals: Rat 9L glioma was implanted on the flanks of male Fisher 344 rats (150 -200 g) via subcutaneous injection of 0.1 mL, ˜10^6 9L glioma cells. Within ten days, tumors grew to the desired size of 1 cm in diameter.
After not feeding animals for 24 hours, the rats were anaesthetized via intraperitoneal injection of Ketamine (75 mg/kg) and Xylazine (10 mg/kg). Pyro-2DG (2 mL, concentration: 0.25 mg/mL) was injected via tail vein infusion over a period of 1 hour (dose: 2.5 mg/kg). Thirty minutes later, the rats were anesthetized again and subjected to PDT.
PDT Protocol: A “point treatment” protocol was designed for evaluating PDT response of Pyro-2DG. PDT was carried out using a KTP YAG pumped dye module (Laserscope, San Jose, Calif.) tuned to produce 670 nm light. Light delivery was through a 1 mm fiber to create a treatment spot of 0.96 mm in diameter when the fiber was held closely adjacent to the tumor. The light field was fixed in position at the center of the tumor by mounting the fiber in the center of a circular plate which was glued to the anesthetized animal. The light was delivered at a fluence rate of 75 mW/cm^2 to a total dose of 175 J/cm^2. Laser power output was measured with a power meter (Coherent, Auburn, Calif.).
Fluorescence Imaging of Tumors (Quistorff, B., Haselgrove, J. C., and Chance, B. (1985) High spatial resolution readout of 3-D metabolic organ structure: an automated, low-temperature redox ratio-scanning instrument. Anal. Biochem. 148, 389-400; Gu, Y. Q., Qian, Z. Y., Chen, J. X., Blessington, D., Ramanujam, N., and Chance, B. (2002) High-resolution three-dimensional scanning optical image system for intrinsic and extrinsic contrast agents in tissue. Rev. Sci. Instruments 73, 172-178; Ramanujam, N., Richards-Kortum, R., Thomsen, S., Mahadevan-Jansen, A., Follen M., and Chance B. (2001) Low temperature fluorescence imaging of freeze-trapped human cervical tissues. Opt. Express 8, 335-343): Immediately after PDT, animals were immersed in pre-cooled isopentane (−150° C.) and transferred to liquid nitrogen (−196° C.) 5 minutes later. Tumors were then surgically excised, embedded in a mixture of ethanol-glycerol-water (freeze point: −30° C.), and mounted at low temperature for 3D surface fluorometric scanning. […] The fluorescence signal was automatically digitized and recorded on a PC. The redox ratio of FP/(FP+PN) was calculated with MATLAB.
A “point treatment” protocol for evaluating PDT response of Pyro-2DG was designed. […] Based on the absorption and emission maxima of Pyro-2DG (λex=665 nm; λem=720 nm), the 9L tumor was treated with 670 nm laser light, and a 700 nm long pass filter was incorporated into the 3D fluorescence scanner for collecting the Pyro-2DG fluorescence at 720 nm. […]

[3] = Biodistribution in organs of a normal Fisher 344 rat by Cryo-imager; assay type: in vivo; conditions: 1 hour after intravenous administration, preliminary
Protocol: FIG. 9. Pyro-2DG uptake in different organs of a Fisher 344 rat after 1 h tail vein infusion of 2 ml of 2.5 mg/kg Pyro-2DG. Liver (top left), kidney (bottom left), spleen (bottom middle) and brain (bottom right). Images of the frozen liver and of the control liver (no Pyro-2DG), respectively, appear in the top middle and right hand panels.
In order to determine the biodistribution of the Pyro-2DG, a normal Fisher 344 rat was sacrificed and different organs were scanned for Pyro-2DG fluorescence with Cryo-imager 1 hour after Pyro-2DG was intravenously administered.

9L glioma cells = test: Confocal microscopy of uptake and localization in 9L glioma cells, with or without D-glucose; assay type: cell-based, rat; conditions: for uptake / localization in 9L glioma cells / effect of D-glucose on uptake / localization in 9L glioma cells: 50 μM, 30 min, 37° C.; for effect of D-glucose on uptake / localization in 9L glioma cells: 50 mM D-glucose; for subcellular localization in 9L glioma cells: 100 μM Pyro-2DG with 10 μg/ml Rhodamine-123, 15 min post-incubation
Protocol: Confocal Microscopic Studies: 9L glioma cells were grown for 5 days in 4-well Lab-Tek chamber slides (Naperville, Ill.). Before the cell experiments, the culture medium was replaced by preincubation medium (medium with 1% (w/v) BSA instead of FBS). The cells were washed three times with preincubation medium (for 15, 15, and 30 min), and cultured in this medium for a further 20 hours. Experiments were started, after two quick washes with preincubation medium, by the addition of preincubation medium containing the indicated amounts of Pyro-2DG and/or D-Glucose. After 30 minutes incubation at 37° C., the cells were washed five times with ice-cold PBS containing 0.8% BSA, two times with PBS alone, and fixed for 20 minutes with 2% formaldehyde in PBS at room temperature. Then the chamber slides were mounted and sealed for confocal microscopic analysis.
9L glioma cells, obtained from Department of Radiation Oncology at University of Pennsylvania, were cultured in Modified Eagle's Medium (NEM) supplemented with 15% newborn calf serum (NCS), 100 U/ml penicillin-streptomycin. Murine melanoma B16 cells, obtained from Dr. Theo van Berkel's laboratory at the University of Leiden, Netherlands, were cultured in Dulbeco's modified Eagle's medium (DMM) supplemented with 10% fetal bovine serum (FBS) and 100 U/n-d penicillin-streptomycin Cells were grown at 37° C. in an atmosphere of 5% CO2 in a humidified incubator. Cells were grown for 5 days in 4-well Lab-Tek chamber slides (Naperville, Ill.) before the experiment. Indicated amounts of NIRF-2DGs with or without D-Glucose and Rbodarninc-123 were incubated with 9L glioma cells/B16 melanoma cells at 37° C. for 30 min after 3 washes with Dulbecco's Phosphate Buffered Saline (D-PBS). After incubation, the cells were washed five times with ice-cold PBS and Fixed for 20 minutes with 2% formaldehyde in PBS at room temperature. Then the chamber slides were mounted and sealed for confocal niicroscopic analysis. Confocal aticroscopic images were obtained with TCS SPII laser scanning confocal microscope (LSCM) (Heidelber, Germany).

[4] = after PDT, 670 nm, 75 mW/cm^2, 175 J/cm^2

Compound: 2-deoxyglucose conjugate of Bacteriopurpurin-18-N-3′-(isothiocyanate)-propylimide [BChlPP-2DG]
enhancement of the tumor region [1]: enhanced

Compound: CC1(C)C(/C=C/C=C/C=C/C=C2\N(CCCCS(=O)(=O)O)c3ccc4ccccc4c3C2(C)C)=[N+](CCCCS(=O)(=O)[O-])c2ccc3ccccc3c21 [ICG, Indocyanine Green, reference compound]
enhancement of the tumor region [1]: no significant enhancement

miscibility with water ([2]; formulation with detergent (1% Tween 80)): completely miscible with water
water solubility ([2]; without detergent): only partially water-soluble
accumulation in liver [3]: accumulated predominantly in liver
accumulation in spleen and kidney [3]: lesser accumulation in spleen and kidney
crossing of the blood-brain barrier [3]: does not cross the blood-brain barrier
Compound: Pyropheophorbide-2-deoxyglucosamide [Pyro-2DG]
NADH fluorescence of irradiated spot (9L glioma; [4]): significant decrease
PP fluorescence of irradiated spot (9L glioma; [4]): marked increase
redox ratio of the tumor FP/(FP+PN) (9L glioma; after PDT, irradiated region): dramatic increase
effect on mitochondrial activities (redox state) of the tumor (9L glioma; rat, in vivo): no effect on the mitochondrial activities of the tumor
uptake / localization in 9L glioma cells (9L glioma cells): localizes within 9L glioma cells
effect of D-glucose on uptake / localization in 9L glioma cells (9L glioma cells): competitively inhibited by D-glucose
subcellular localization in 9L glioma cells (9L glioma cells): localize in mitochondria

Compound: Rhodamine 123 [Rhodamine-123, reference compound]
subcellular localization in 9L glioma cells (9L glioma cells): localize in mitochondria

Compound: pyropheophorbide a [reference compound]
uptake / localization in 9L glioma cells (9L glioma cells): concentration dependent
effect of D-glucose on uptake / localization in 9L glioma cells (9L glioma cells): not inhibited by D-glucose
